Where two headings read alike, the source gives them in different places.
Assays:
mesenteric artery = experiment: relaxing activity against contraction by KCl, extracted rabbit blood vessels (mesenteric artery); details: Oryctolagus cuniculus
Experimental: (§1) (1) Activity on the extracted blood vessels of a rabbit
(§2) A rabbit with a body weight of 2 to 3 kg was bled to death, and the thoracic aorta, mesenteric artery, renal artery, basilar artery and portal vein were extracted. Helical stripe specimens of these blood vessels were prepared. The specimens were suspended in a Magnus vessel, and the relaxing activity of the compound A against contraction of the specimens by KCl was examined. […] It is seen therefore that the compound A differs in activity from nitroglycerin having a strong relaxing activity on the veins, and has a strong relaxing activity on arteries, for example the coronary artery, the renal artery, etc.
(§3) The inhibiting activity on human platelet aggregation and the relaxing activity on mesenteric artery (the artery being extracted from rabbits) of compounds B to G of the invention were also examined in the same way as in I, (1) and (2). The mesenteric artery relaxing activity was shown in terms of the concentration (μM) of each compound which was required to cause 50% of the maximum relaxation, and the platelet aggregation inhibiting activity, in terms of the concentration (μM) of each compound which was required to inhibit aggregation to an extent of 50%. The platelet aggregation inhibiting activities of these compounds agreed relatively well with their artery relaxing activities

human platelet = experiment: inhibition of human platelet aggregation in PRP; assay type: cell-based
Text: (2) Activity on human platelet
PRP (platelet-rich plasma) was centrifugally separated from human blood to which sodium citrate had been added, and used as a sample. Collagen, adrenaline and adenosine diphosphate were used as substances causing platelet aggregation. The inhibitory effect of the compound A against platelet aggregation included by these substances was examined.
as §3

[1] = activity on the respiration, blood pressure, heart rate and blood flow rate of a dog; assay type: in vivo, dog (male Beagle); details: intravenous, pentobarbital anesthesia
Experimental: (3) Activity on the respiration, blood pressure, heart rate and blood flow rate of a dog.
The test was carried out under pentobarbital anesthesia using a male Beagle dog having a body weight of about 10 kg. The respiration was measured by means of a pneumotachograph; the blood pressure, by inserting a cannula into the femoral artery; the heart rate, by a cardiotachometer; and the rate of blood flow, by means of an electromagnetic blood flow meter by mounting a measuring probe on the vertebral artery and the femoral artery.
The present compound A was intraveneously administered as a solution in physiological saline.

portal vein = experiment: relaxing activity against contraction by KCl, extracted rabbit blood vessels (portal vein); details: Oryctolagus cuniculus, helical stripe specimens, read-out: ED50 (relaxing activity against KCl contraction)
Experimental: as §1, §2

acute toxicity test = details: mouse, in vivo
Experimental: An acute toxicity test was carried out by using male dd-strain mice (body weight 16 to 20 g).

renal artery = experiment: relaxing activity against contraction by KCl, extracted rabbit blood vessels (renal artery); details: Oryctolagus cuniculus, helical stripe specimens, read-out: ED50 (relaxing activity against KCl contraction)
Experimental: as §1, §2

basilar artery = experiment: relaxing activity against contraction by KCl, extracted rabbit blood vessels (basilar artery); details: Oryctolagus cuniculus, helical stripe specimens, read-out: ED50 (relaxing activity against KCl contraction)
Experimental: as §1, §2

coronary artery = experiment: relaxing activity against contraction by KCl, extracted rabbit blood vessels (coronary artery); details: Oryctolagus cuniculus, helical stripe specimens, read-out: ED50 (relaxing activity against KCl contraction)
Experimental: as §1, §2

thoracic aorta = experiment: relaxing activity against contraction by KCl, extracted rabbit blood vessels (thoracic aorta); details: Oryctolagus cuniculus, helical stripe specimens, read-out: ED50 (relaxing activity against KCl contraction)
Experimental: as §1, §2

[2] = Table 1, artery extracted from rabbits, same way as in I (1), read-out: Mesenteric artery relaxing activity (concentration required to cause 50% of the maximum relaxation)
[3] = Table 1, human platelets, inducing substance not stated, read-out: Platelet aggregation inhibiting activity (concentration required to inhibit aggregation to an extent of 50%)

In the case of `N=c1c[n+](N2CCN(CCCCCC(=O)c3ccccc3)CC2)[n-]o1` [compound D, 3-[4-(5-benzoylpentyl)piperazin-1-yl]sydnonimine], the EC50 (mesenteric artery; [2]) is reported as 3000 nM and the IC50 (human platelet; [3]) is reported as 6300 nM.
Work on `N=c1c[n+](N2CCN(CCCCCCCCC(=O)c3ccccc3)CC2)[n-]o1` [compound F, 3-[4-(8-benzoyloctyl)piperazin-1-yl]sydnonimine] yielded an EC50 (mesenteric artery; [2]) of 58 nM and an IC50 (human platelet; [3]) of 28 nM.
Work on `N=c1c[n+](N2CCN(CCCCCCC(=O)c3ccccc3)CC2)[n-]o1` [compound E, 3-[4-(6-benzoylhexyl)piperazin-1-yl]sydnonimine] yielded an EC50 (mesenteric artery; [2]) of 120 nM and an IC50 (human platelet; [3]) of 940 nM.
`N=c1c[n+](N2CCN(CCCC(=O)c3ccccc3)CC2)[n-]o1` [compound C, 3-[4-(3-benzoylpropyl)piperazin-1-yl]sydnonimine] gave an EC50 (mesenteric artery; [2]) of 2300 nM and an IC50 (human platelet; [3]) of 5400 nM.
Work on `CC(C)CC(CCCN1CCN([n+]2cc(=N)o[n-]2)CC1)C(=O)c1ccccc1` (centres unmarked) [compound G, 3-[4-(4-benzoyl-6-methylheptyl)piperazin-1-yl]-sydnonimine] yielded an EC50 (mesenteric artery; [2]) of 1300 nM and an IC50 (human platelet; [3]) of 11000 nM.
`N=c1c[n+](N2CCN(CC(=O)c3ccccc3)CC2)[n-]o1` [compound B, 3-[4-(benzoylmethyl)piperazin-1-yl]sydnonimine] gave an EC50 (mesenteric artery; [2]) of 160 nM and an IC50 (human platelet; [3]) of 140 nM.
With `N=c1c[n+](N2CCN(CCCCC(=O)c3ccccc3)CC2)[n-]o1` [compound A, 3-[4-(4-Benzoylbutyl)piperazin-1-yl]sydnonimine] the “effect on respiration, blood pressure, heart rate and blood flow” value ([1]; 10 μg/kg) was “No appreciable effect was seen”, the blood pressure ([1]; 100 μg/kg) was “slight degrees of a fall in blood pressure” and the “force of the pulse” value ([1]; 100 μg/kg) was “a decrease in the force of the pulse”. For the same molecule, the blood pressure ([1]; 500 μg/kg) was “a transient fall in blood pressure and a subsequent lasting fall in blood pressure”, the “rate of blood flow” value ([1]; vertebral artery and femoral artery) was “tended to increase at the central part as compared with the peripheral part” and the EC50 (mesenteric artery; mesenteric artery, KCl contraction, helical stripe specimens, read-out: ED50 (relaxing activity against KCl contraction)) was 200 nM. It also gave an EC50 (portal vein) of 4000 nM, an IC50 (human platelet; induced by adenosine diphosphate, human PRP, read-out: concentration which achieved a 50% inhibition of the platelet aggregation) of 1500 nM and an IC50 (human platelet; induced by adrenaline, human PRP, read-out: concentration which achieved a 50% inhibition of the platelet aggregation) of 800 nM. The IC50 (human platelet; induced by collagen, human PRP, read-out: concentration which achieved a 50% inhibition of the platelet aggregation) was 3400 nM, the LD50 (acute toxicity test; sc, subcutaneous administration) was 350 mg/kg and the LD50 (acute toxicity test; intravenous administration) was 91 mg/kg. It also gave an LD50 (acute toxicity test; oral administration) of 750 mg/kg, an EC50 (renal artery) of 100 nM and an EC50 (basilar artery) of 1300 nM. It also gave an EC50 (coronary artery) of 200 nM and an EC50 (thoracic aorta) of 200 nM.
